# Test results: article PMC11418212, “Characterization of four structurally diverse inhibitors of SUR2-containing KATP channels” (Channels, 2024)
# Values joined by “and” are separate entries in the source; they are usually repeats but may differ in a detail not shown here. Identical values can stand only once. “Also recorded” adds a separate entry of the source. Like-named read-outs stand apart in the source and are kept apart here.
# Assays:
# Kir6.1/SUR2B [1] = target: T1, Kir6.1/SUR2B (Homo sapiens, UniProt O60706); test: Thallium flux activation dose-response without channel pre-activation; type: cell-based; conditions: no channel pre-activation; doses up to 30 µM
# T1 construct: expressed in transfected cells; Kir6.1 tetracycline-inducible, SUR2B constitutive
# Method: (§1) Thallium flux assays were conducted using the established methods. Stably transfected T-REx-HEK-293 cells expressing Kir6.2/SUR1 or Kir6.1/SUR2B were cultured overnight in polyamine-coated plates (black-walled, clear-bottomed; BD, Bedford, MA) at a density of 20,000 cells in 20 µl per well of cell culture media. The expression of Kir6.2/SUR1 or Kir6.1/SUR2B channels was induced by treating cells with 1 µg/ml tetracycline overnight. The following day, cells were rinsed with an assay buffer (Hanks’ Balanced Salt Solution supplied with 20 mM HEPES), loaded with the thallium-sensor dye Brilliant Thallos-AM AM (Ion Bioscience, San Marcos, TX) for 1 h, and then washed again with assay buffer to remove unincorporated dye. The cell plate was subsequently placed in a Panoptic Kinetic Imaging Plate Reader (Wavefront Bioscience, Franklin, TN) and imaged at a frequency of 1 Hz using 482/35 nm (excitation) and 536/40 nm (emission) filter sets. Kir6.1/SUR2B channels were activated with 10 µM pinacidil, whereas Kir6.1/SUR1 was activated with 30 µM VU0071063 [34]. To activate KATP channels independent of activators with ATP-depletion method, cells were treated with a cocktail of metabolic inhibitors (2.5 mM sodium cyanide and 20 mM 2-deoxy glucose) for 25 min before imagine. Control and test compounds diluted freshly from DMSO stocks into assay buffer were added to wells for four minutes before adding 0.5 mM chloride-free thallium stimulus buffer (Ion Bioscience) to initiate thallium flux through the expressed KATP channels. Thallium flux was recorded from all 384-wells for 2 min before terminating the experiment. […] Selectivity assays against other Kir channels were performed as described previously.
# (§2) We therefore systematically explored this possibility in dose–response experiments against Kir6.2/SUR1 in the absence of channel pre-activation. Kir6.1/SUR2B was also evaluated for comparison.
# (§3) Figure 6. Paradoxical activation of Kir6.2/SUR1. […] Fluorescence intensity at each dose was normalized to that in the absence of drug. […] (b) Activities of indicated compounds at 30 μM toward Kir6.1/SUR2B normalized to that of 30 μM pinacidil. […] (d) Activities of indicated compounds at 30 μM toward Kir6.2/SUR1 normalized to that of 30 μM VU0071063.
# Kir6.1/SUR2B [2] = target: T1, Kir6.1/SUR2B; test: Quantitative thallium flux assay, inhibition, stably transfected T-REx-HEK293 cells; type: cell-based
# Kir4.2 = target: T2, Kir4.2 (Homo sapiens, UniProt Q99712); design: method as in PMID 29895592; conditions: cited from earlier work
# T2 construct: expressed in transfected cells
# T2 sequence (Q99712 1-375): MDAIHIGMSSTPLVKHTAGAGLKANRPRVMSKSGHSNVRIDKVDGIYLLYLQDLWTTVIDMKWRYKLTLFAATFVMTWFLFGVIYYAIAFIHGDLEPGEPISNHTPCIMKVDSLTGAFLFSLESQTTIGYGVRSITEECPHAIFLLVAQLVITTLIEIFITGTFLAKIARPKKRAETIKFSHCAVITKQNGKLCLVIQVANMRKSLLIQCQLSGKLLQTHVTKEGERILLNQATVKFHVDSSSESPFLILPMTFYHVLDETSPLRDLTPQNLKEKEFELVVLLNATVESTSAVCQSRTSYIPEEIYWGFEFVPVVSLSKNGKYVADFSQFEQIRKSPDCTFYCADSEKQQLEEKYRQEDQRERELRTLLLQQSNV
# Kir3.1/3.4 = target: T3, Kir3.1/3.4 (Homo sapiens, UniProt P48544+P48549); design: method as in PMID 29895592; conditions: cited from earlier work
# T3 construct: expressed in transfected cells
# T3 sequence (P48549 1-501): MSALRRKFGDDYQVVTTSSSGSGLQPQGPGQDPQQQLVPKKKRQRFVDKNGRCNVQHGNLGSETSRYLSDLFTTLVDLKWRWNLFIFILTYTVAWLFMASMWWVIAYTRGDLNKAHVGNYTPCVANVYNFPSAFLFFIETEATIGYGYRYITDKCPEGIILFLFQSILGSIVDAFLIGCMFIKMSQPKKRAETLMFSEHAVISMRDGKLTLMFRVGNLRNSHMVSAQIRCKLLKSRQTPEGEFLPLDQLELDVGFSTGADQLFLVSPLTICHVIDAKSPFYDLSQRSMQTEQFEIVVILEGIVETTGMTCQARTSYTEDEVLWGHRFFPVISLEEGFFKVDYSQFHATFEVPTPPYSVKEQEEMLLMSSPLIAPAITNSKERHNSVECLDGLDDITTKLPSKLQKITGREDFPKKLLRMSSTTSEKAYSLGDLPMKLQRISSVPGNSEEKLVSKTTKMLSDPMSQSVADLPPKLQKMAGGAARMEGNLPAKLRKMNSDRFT
# T3 sequence (P48544 1-419): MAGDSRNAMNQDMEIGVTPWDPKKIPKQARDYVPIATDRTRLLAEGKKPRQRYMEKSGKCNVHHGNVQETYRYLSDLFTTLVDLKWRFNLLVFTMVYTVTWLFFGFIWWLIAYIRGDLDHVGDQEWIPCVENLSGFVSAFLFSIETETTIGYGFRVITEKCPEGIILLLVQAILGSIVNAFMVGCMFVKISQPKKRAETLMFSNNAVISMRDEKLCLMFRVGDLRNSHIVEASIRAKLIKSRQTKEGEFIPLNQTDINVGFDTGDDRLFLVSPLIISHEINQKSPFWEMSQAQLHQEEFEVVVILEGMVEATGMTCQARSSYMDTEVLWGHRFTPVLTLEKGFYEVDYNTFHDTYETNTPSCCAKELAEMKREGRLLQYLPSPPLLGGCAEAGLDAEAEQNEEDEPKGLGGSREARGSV
# Kir3.1/3.2 = target: T4, Kir3.1/3.2 (Homo sapiens, UniProt P48051+P48549); design: method as in PMID 29895592; conditions: cited from earlier work
# T4 construct: expressed in transfected cells
# T4 sequence (P48549 1-501): T3 sequence (P48549 1-501)
# T4 sequence (P48051 1-423): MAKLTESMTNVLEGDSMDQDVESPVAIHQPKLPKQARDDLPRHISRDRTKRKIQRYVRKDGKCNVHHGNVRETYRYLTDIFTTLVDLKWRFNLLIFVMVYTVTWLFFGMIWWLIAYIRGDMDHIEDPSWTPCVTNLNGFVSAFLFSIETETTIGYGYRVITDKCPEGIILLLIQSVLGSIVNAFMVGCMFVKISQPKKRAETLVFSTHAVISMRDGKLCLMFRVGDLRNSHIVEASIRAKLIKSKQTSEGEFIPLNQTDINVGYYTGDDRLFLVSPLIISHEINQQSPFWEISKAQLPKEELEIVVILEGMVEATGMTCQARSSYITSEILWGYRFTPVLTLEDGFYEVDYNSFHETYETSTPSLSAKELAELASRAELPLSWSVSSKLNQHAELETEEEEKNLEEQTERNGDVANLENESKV
# Kir4.1 = target: T5, Kir4.1 (Homo sapiens, UniProt P78508); design: method as in PMID 29895592; conditions: cited from earlier work
# T5 construct: expressed in transfected cells
# T5 sequence (P78508 1-379): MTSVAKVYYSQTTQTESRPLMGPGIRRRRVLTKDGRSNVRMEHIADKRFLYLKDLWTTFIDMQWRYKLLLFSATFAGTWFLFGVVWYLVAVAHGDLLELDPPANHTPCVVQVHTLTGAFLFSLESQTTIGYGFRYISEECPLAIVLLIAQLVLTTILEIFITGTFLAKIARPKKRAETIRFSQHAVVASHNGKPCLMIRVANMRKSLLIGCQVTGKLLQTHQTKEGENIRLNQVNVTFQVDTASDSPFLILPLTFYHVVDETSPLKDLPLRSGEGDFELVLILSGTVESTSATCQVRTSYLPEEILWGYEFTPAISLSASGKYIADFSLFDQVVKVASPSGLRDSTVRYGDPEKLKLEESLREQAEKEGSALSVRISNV
# [3] = test system: isolated mouse ductus arteriosus vessels; design: method as in PMID 38302135; conditions: compared with glibenclamide; cited from earlier work
# Kir6.2/SUR1 [4] = target: T6, Kir6.2/SUR1 (Homo sapiens, UniProt Q09428); test: Thallium flux activation dose-response without channel pre-activation; type: cell-based; conditions: no channel pre-activation; doses up to 30 µM
# Method: as §1, §2, §3
# Kir6.1/SUR2B [5] = target: T1, Kir6.1/SUR2B; design: method as in PMID 38302135; conditions: previously reported; cited from earlier work
# Kir6.2/SUR1 [6] = target: T6, Kir6.2/SUR1; design: method as in PMID 38302135; conditions: previously reported; cited from earlier work
# Kir6.2/SUR1 [7] = target: T6, Kir6.2/SUR1; test: Quantitative thallium flux assay, inhibition, stably transfected T-REx-HEK293 cells; type: cell-based
# Method: Briefly, T-Rex-HEK293 cells underwent co-transfection with pcDNA5/TO-Kir6.1 or pcDNA5/TO-Kir6.2 (inducible expression) and pcDNA3.1-SUR2B or pcDNA3.1-SUR1 (constitutive expression) using Lipofectamine LTX following the manufacturer’s instructions and were then subjected to selection with antibiotics. Monoclonal cell lines were established through limiting dilution and characterization in thallium flux assays described below. […] KATP channel selectivity assays were performed in HEK293 cells transiently transfected with the indicated subunit using Lipofectamine LTX. The cells were incubated for 48 h after transfection before performing thallium flux assays.
# as §1, with “The cell plate was subsequently placed in a Panoptic Kinetic Imaging Plate Reader (Wavefront Bioscience, Franklin, TN) and imaged at a frequency of 1 Hz using 482/35 nm (excitation) and 536/40 nm (emission) filter sets. Kir6.1/SUR2B channels were activated with 10 µM pinacidil, whereas Kir6.1/SUR1 was activated with 30 µM VU0071063 [34].” left out
# The kinetic fluorescence measurements (F) from each well were normalized to the initial reading (F0), producing static ratios (F/F0) that adjust for variations in cell count and dye uptake. […] The response (maxmin2) was determined by subtracting the min value from the max value. Percent inhibition was calculated by normalizing each well’s response to the positive and negative controls. Concentration–response curves were fitted using a single-site, four-parameter logistic function in Prism version 4.0 (GraphPad Software Inc., San Diego, CA) to calculate the half-maximal inhibitory concentration (IC50). Statistical comparisons of IC50 values were performed using an extra sum-of-squares F test and the Mann–Whitney test. A p-value of less than 0.05 was considered statistically significant.
# [8] = ATP depletion with sodium cyanide and 2-deoxy-glucose, read-out: IC50 Kir6.1/SUR2B, ATP depletion
# [9] = channels activated with 10 µM pinacidil, read-out: IC50 Kir6.1/SUR2B, pinacidil activation
# [10] = thallium flux, ATP depletion with sodium cyanide and 2-deoxy-glucose
# T6 sequence (Q09428 whole entry, species assumed): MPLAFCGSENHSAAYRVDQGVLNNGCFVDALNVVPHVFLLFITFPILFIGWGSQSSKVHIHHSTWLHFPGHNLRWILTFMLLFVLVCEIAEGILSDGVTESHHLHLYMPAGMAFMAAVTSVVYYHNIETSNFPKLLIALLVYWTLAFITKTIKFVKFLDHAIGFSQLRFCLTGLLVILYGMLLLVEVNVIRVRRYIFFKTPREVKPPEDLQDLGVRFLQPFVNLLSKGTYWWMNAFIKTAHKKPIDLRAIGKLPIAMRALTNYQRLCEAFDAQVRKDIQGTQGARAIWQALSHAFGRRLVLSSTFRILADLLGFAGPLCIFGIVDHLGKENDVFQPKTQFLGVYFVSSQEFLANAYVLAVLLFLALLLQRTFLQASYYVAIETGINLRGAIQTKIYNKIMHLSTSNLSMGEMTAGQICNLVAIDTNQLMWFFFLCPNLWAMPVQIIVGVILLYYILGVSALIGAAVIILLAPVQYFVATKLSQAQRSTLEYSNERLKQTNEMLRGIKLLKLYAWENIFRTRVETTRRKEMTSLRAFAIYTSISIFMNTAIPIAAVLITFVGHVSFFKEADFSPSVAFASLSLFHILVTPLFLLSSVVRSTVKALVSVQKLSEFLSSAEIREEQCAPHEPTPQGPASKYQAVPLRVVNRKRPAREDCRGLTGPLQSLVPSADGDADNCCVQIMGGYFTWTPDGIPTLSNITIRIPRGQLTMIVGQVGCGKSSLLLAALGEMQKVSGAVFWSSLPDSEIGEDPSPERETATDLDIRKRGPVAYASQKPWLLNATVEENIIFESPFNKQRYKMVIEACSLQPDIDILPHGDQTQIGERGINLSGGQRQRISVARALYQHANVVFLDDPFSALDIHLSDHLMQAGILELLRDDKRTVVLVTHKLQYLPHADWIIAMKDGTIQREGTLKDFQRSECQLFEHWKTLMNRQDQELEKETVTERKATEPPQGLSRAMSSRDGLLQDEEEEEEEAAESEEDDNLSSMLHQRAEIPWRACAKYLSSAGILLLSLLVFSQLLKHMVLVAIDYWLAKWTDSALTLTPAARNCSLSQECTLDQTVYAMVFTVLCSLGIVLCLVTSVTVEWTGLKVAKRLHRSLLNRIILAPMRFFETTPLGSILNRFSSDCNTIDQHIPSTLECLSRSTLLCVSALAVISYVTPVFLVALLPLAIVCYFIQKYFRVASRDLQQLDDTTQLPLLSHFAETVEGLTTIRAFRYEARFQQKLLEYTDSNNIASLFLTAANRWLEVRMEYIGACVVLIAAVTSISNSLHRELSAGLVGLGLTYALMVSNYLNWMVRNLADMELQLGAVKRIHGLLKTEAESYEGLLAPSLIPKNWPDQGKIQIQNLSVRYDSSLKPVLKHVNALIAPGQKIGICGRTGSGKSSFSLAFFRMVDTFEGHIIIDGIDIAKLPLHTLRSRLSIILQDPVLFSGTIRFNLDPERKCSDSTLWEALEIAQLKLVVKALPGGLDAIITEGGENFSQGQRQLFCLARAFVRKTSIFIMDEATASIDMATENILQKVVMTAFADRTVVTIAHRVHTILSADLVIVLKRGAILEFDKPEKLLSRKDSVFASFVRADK
# T6 sequence (Q14654 whole entry partner, species assumed): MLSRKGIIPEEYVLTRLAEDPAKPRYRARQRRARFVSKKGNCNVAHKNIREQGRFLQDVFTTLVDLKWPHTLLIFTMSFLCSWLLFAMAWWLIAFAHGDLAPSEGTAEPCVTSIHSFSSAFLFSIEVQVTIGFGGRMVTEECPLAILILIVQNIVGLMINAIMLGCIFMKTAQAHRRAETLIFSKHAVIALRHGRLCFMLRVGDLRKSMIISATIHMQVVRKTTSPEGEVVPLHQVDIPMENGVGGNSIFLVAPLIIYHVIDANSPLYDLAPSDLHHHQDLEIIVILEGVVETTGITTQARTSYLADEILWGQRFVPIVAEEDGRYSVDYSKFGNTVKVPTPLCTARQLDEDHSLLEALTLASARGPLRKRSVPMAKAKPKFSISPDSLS
# T1 sequence (O60706 1-1549 isoform O60706-2, species assumed): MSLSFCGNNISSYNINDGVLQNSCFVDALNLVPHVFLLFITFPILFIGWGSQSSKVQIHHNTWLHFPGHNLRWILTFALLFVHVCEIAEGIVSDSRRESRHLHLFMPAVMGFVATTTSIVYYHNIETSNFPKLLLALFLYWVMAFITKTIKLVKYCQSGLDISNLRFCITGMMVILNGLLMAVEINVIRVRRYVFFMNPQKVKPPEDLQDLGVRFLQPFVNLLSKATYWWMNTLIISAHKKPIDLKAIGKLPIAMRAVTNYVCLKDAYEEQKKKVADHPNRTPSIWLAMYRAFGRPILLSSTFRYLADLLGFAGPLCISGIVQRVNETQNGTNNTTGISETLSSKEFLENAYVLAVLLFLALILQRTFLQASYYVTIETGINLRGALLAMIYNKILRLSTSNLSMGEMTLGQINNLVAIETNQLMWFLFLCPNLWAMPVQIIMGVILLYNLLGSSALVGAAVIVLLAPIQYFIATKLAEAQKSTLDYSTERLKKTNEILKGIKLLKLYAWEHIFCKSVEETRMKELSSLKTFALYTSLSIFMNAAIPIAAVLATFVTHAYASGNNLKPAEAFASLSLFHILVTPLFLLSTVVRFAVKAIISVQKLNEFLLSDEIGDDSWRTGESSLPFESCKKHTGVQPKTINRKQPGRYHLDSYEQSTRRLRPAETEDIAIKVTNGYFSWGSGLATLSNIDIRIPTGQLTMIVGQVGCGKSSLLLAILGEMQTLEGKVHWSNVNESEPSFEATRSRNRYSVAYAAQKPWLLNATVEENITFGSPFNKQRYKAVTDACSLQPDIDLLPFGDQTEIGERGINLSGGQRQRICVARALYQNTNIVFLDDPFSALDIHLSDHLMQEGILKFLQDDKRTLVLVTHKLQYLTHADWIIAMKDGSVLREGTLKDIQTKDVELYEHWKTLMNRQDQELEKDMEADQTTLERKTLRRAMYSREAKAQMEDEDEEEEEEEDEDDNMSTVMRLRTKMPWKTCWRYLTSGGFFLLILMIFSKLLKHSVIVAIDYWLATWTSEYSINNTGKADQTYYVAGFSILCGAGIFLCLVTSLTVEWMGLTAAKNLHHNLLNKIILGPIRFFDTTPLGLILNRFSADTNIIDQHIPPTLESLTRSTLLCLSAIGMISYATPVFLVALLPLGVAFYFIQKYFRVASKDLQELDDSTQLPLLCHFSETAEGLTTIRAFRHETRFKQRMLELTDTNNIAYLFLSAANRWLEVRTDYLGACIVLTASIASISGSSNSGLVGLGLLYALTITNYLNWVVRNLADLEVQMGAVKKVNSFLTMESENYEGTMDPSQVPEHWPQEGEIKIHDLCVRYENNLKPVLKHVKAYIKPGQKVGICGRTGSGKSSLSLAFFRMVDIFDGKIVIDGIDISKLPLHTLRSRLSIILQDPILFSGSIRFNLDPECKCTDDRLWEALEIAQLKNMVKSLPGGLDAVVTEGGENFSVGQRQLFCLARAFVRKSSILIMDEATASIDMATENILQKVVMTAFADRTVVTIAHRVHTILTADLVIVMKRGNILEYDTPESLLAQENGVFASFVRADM
# T1 sequence (Q15842 whole entry partner, species assumed): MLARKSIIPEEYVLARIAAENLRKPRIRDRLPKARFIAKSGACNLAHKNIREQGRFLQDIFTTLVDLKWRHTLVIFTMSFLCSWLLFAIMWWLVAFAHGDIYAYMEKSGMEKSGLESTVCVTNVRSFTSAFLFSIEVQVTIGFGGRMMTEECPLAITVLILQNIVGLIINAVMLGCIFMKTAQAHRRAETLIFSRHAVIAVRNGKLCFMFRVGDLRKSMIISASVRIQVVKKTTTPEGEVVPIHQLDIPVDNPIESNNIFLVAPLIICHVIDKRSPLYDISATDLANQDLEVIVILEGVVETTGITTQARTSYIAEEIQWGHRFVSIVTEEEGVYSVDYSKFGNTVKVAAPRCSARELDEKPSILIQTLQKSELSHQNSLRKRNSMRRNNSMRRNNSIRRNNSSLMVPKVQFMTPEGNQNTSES
SMILES,Activation of Kir6.1/SUR2B (Kir6.1/SUR2B [1]),IC50 (Kir6.1/SUR2B [2]; [8]),IC50 (Kir6.1/SUR2B [2]; [9]),IC50 (Kir4.2) [µM],Efficacy of inhibition of Kir3.1/3.4 (Kir3.1/3.4; at 30 µM),IC50 (Kir3.1/3.4) [µM],Efficacy of inhibition of Kir3.1/3.2 (Kir3.1/3.2; at 30 µM),IC50 (Kir3.1/3.2) [nM],Efficacy of inhibition of Kir4.1 (Kir4.1; at 30 µM),IC50 (Kir4.1) [µM],Potency for contraction of ductus arteriosus vessels [3],Activation of Kir6.2/SUR1 (Kir6.2/SUR1 [4]),IC50 (Kir6.1/SUR2B [5]) [nM],Activity toward Kir6.2/SUR1 (Kir6.2/SUR1 [6]),"Effect on Kir6.2/SUR1 channel activity (Kir6.2/SUR1 [7]; VU0071063 activation or ATP depletion, full range of doses tested (up to 30 µM))",IC50 (Kir6.2/SUR1 [7]; [10]) [µM],"IC50 Kir6.2/SUR1, ATP depletion (Kir6.2/SUR1 [7]; [10])","IC50 Kir6.2/SUR1, VU0071063 activation (Kir6.2/SUR1 [7]; thallium flux, in the presence of 10 uM VU0071063)"
"COc1ccc(Cl)cc1C(=O)NCCc1ccc(S(=O)(=O)NC(=O)NC2CCCCC2)cc1 [Glibenclamide, glibenclamide, reference compound]",failed to activate,51 nM and 50 nM,33 nM and 30 nM,–,–,–,–,–,–,–,–,–,–,–,–,–,–,–
CC(C)c1ccc(OCC(=O)NC2CC(C)(C)NC(C)(C)C2)c(Br)c1 [VU0134992],–,–,–,8.2,greater than 90%,3.1,greater than 90%,2500,greater than 90%,5.2,–,–,–,–,–,–,–,–
"Cc1nc(-c2cccs2)sc1CNC(=O)Nc1cccs1 [VU0542270, reference compound]",failed to activate,31 nM and 30 nM,100 nM,–,–,–,–,–,–,–,same potency as glibenclamide,failed to activate; also recorded: did not,~100,no apparent activity,no effect,> 30,no fit,no fit
